The values that follow come from PMC9613470, “Diverse MarR bacterial regulators of auxin catabolism in the plant microbiome” (Nature Microbiology, 2022).

Like-named read-outs stand apart in the source and are kept apart here.

The target of data set [1] is Variovorax paradoxus CL14 MarR_73 (Variovorax paradoxus, UniProt C5CSP2). Briefly: biochemical. It counts as binding. The procedure: The coding sequence for each gene can be found in Supplementary Table 10. MarR expression plasmids were synthesized as codon-optimized genes for E. coli expression by BioBasic in the pLIC-His N-term vector (pMCSG7) and transformed into E. coli BL21 (DE3) Gold cells for expression. […] At an OD600 of 0.8, protein expression was induced by the addition of 0.1 mM IPTG and incubation continued overnight. Cells were collected by centrifugation at 4,500 × g for 20 min at 4 °C in a Sorvall (model RC-3B) swinging bucket centrifuge. Cell pellets were resuspended in buffer A (20 mM potassium phosphate, pH 7.4, 50 mM imidazole, 500 mM NaCl), DNase, lysozyme and a Roche Complete EDTA-free protease inhibitor tablet. Resuspended cells were sonicated and clarified via centrifugation at 17,000 × g for 60 min in a Sorvall (model RC-5B) swinging bucket centrifuge. The lysate was applied to a nickel-nitrilotriacetic acid HP column (GE Healthcare) on an Aktaxpress Fast Performance Liquid Chromatography (FPLC) system (Amersham Bioscience) and washed with buffer A. Protein was eluted with buffer B (20 mM potassium phosphate, pH 7.4, 500 mM imidazole, 500 mM NaCl). Fractions containing the protein of interest were combined and passed over a HiLoadTM 16/60 SuperdexTM 200 gel filtration column. Proteins were eluted in S200 buffer (20 mM HEPES, pH 7.4, 300 mM NaCl). Fractions were combined and concentrated for long-term storage at −80 °C.
Variovorax paradoxus CL14 MarR_73, sequence (C5CSP2 entry or part of it): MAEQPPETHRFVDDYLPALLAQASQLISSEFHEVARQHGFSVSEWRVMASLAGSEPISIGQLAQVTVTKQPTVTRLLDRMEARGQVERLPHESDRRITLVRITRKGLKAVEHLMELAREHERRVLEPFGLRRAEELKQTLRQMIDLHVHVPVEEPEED
All ITC measurements were performed at 25 °C using an Auto-ITC200 microcalorimeter (MicroCal/GE Healthcare). The buffer employed was 20 mM HEPES, pH 7.4, 50 mM NaCl and 0.5% dimethly sulfoxide (DMSO) for protein/ligand binding and 20 mM HEPES, pH 7.4 and 300 mM NaCl for DNA/protein binding experiments. For ligand binding experiments, the calorimetry cell (volume […]) was loaded with MarR wild-type, mutant or homologue protein at a concentration of 50 μM. The syringe was loaded with a ligand concentration of 0.5 or 2 mM. […] A typical injection protocol included a single 0.2 μl first injection followed by 20 1.5 μl injections of the syringe sample into the calorimetry cell. The spacing between injections was kept at 180 s and the reference power at 8 μcal s^−1. […] Two independent ITC measurements were performed for each condition.

The test system of data set [2] is Variovorax paradoxus CL14 MarR_73 S28A. Briefly: ITC binding of duplex oligo DNA to MarR_73 S28A.
Variovorax paradoxus CL14 MarR_73 S28A, sequence (as listed by the source, stated change not applied): as the sequence (C5CSP2 entry or part of it) above, with S28A counted along it
The mark [3] stands for this setting: ITC, 25 °C, 20 mM HEPES pH 7.4, 50 mM NaCl, 0.5% DMSO, mean of two measurements ± standard error.
[4] abbreviates: ITC, 25 °C, 20 mM HEPES pH 7.4, 300 mM NaCl.
Setting [5] is: ITC, 25 °C, 20 mM HEPES pH 7.4, 300 mM NaCl, duplex oligo in cell, protein in syringe.

As a reminder, the Kd is the equilibrium constant for the complex coming apart. As to `Nc1c(Cl)c(Cl)nc(C(=O)O)c1Cl` [Picloram], in data set [1], the Kd amounted to 16 ± 0.4 µM. In data set [1] (setting [3]), the “N (ligand binding stoichiometry to the MarR monomer)” value is 0.96 ± 0.01.

As for `O=C(O)c1ccccc1O` [Salicylic Acid], the Kd in data set [1] amounted to 14 ± 3 µM. Further, the “N (ligand binding stoichiometry to the MarR monomer)” value in data set [1] (setting [3]) is reported as 0.90 ± 0.01.

In data set [2] (ITC in 150 mM NaCl), “AATTCATGATTGTGGATACATT: 22 bp duplex oligo DNA, sequence between genes 73 and 72 (antisense TTAAGTACTAACACCTATGTAA; chemistry not fully specified; one strand is listed 3' to 5')” returned a Kd of 0.428 ± 0.002 µM and an N of 1.75 ± 0.014. The “N (MarR monomer binding stoichiometry to duplex DNA)” value in data set [2] (setting [4]) was determined as 2.1 ± 0.3. Also, in data set [2] (setting [5]), the affinity, expressed as Kd, was 0.52 ± 0.09 µM.

Regarding `Oc1ccccc1O` [Catachol (1,2-Dihydroxybenzene), 1,2-Dihydroxybenzene], binding in data set [1] was characterised by a dissociation constant (Kd) of 13 ± 0.1 µM. Further, the “N (ligand binding stoichiometry to the MarR monomer)” value in data set [1] (setting [3]) was determined as 0.76 ± 0.01.

In data set [1], `O=C(O)Cc1c[nH]c2ccc(O)cc12` [5-Hydroxyindole-3-Acetic Acid] came in with a Kd of 10 ± 0.3 µM. Further, the “N (ligand binding stoichiometry to the MarR monomer)” value in data set [1] (setting [3]) is reported as 0.78 ± 0.25.

In data set [1], `O=C(O)c1ccccc1` [Benzoic Acid] displayed a Kd of 13 ± 1 µM. The “N (ligand binding stoichiometry to the MarR monomer)” value in data set [1] (setting [3]) amounted to 0.80 ± 0.01.

“GTAATTCATGATTGTGGATACATTCATTTG: 30 bp duplex oligo DNA, sequence between genes 73 and 72 of the Variovorax IAA degradation locus (antisense CATTAAGTACTAACACCTATGTAAGTAAAC; chemistry not fully specified; one strand is listed 3' to 5')”: the “N (MarR monomer binding stoichiometry to duplex DNA)” value in data set [2] (setting [4]) came to 2.0 ± 0.1. Also, the Kd in data set [2] (setting [5]) is 0.27 ± 0.02 µM.

As for `O=C(O)CCc1c[nH]c2ccccc12` [Indole-3-propionic Acid], the Kd in data set [1] was found to be 17 ± 0.1 µM. Further, the “N (ligand binding stoichiometry to the MarR monomer)” value in data set [1] (setting [3]) was found to be 0.81 ± 0.05.

Consider “AATTCATGATTGTGGATACATTCA: 24 bp MarR_73 DNA binding sequence between genes 73 and 72 (antisense TTAAGTACTAACACCTATGTAAGT; chemistry not fully specified; one strand is listed 3' to 5')”, for which, in data set [2] (ITC in 150 mM NaCl), the Kd was 0.151 ± 0.025 µM and the N was determined as 2.51 ± 0.26. For the same compound, in data set [2] (setting [4]), the “N (MarR monomer binding stoichiometry to duplex DNA)” value is on record as 2.5 ± 0.2. Also, in data set [2] (setting [5]), the Kd amounted to 0.21 ± 0.09 µM.

Take `O=C(O)COc1ccc(Cl)cc1Cl` [2,4-Dichorophenoxyacetic Acid]: the “N (ligand binding stoichiometry to the MarR monomer)” value in data set [1] (setting [3]) was 1.40 ± 0.01. Also, the Kd in data set [1] (ITC, 25 °C, 20 mM HEPES pH 7.4, 50 mM NaCl, 0.5% DMSO, mean of two measurements ± standard error, read-out: KD) stood at 11 ± 1 µM.

Compound `O=C(O)Cc1ccccc1` [Phenylacetic Acid] displayed a Kd in data set [1] of 10 ± 0.1 µM. In addition, the “N (ligand binding stoichiometry to the MarR monomer)” value in data set [1] (setting [3]) turned out to be 0.79 ± 0.02.

In turn, `O=C(O)CCCc1c[nH]c2ccccc12` [Indole-3-Butyric Acid] returned a Kd in data set [1] of 18 ± 1 µM. Moreover, the “N (ligand binding stoichiometry to the MarR monomer)” value in data set [1] (setting [3]) came to 0.80 ± 0.01.

In data set [1], `O=C(O)Cc1cccc2ccccc12` [1-Naphthaleneacetic Acid] came in with a Kd of 0.33 ± 0.01 µM. In data set [1] (setting [3]), the “N (ligand binding stoichiometry to the MarR monomer)” value was found to be 0.74 ± 0.01.

As for `O=C(O)c1c[nH]c2ccccc12` [Indole-3-Carboxylic Acid], in data set [1], the affinity, expressed as Kd, was 4.6 ± 0.5 µM. Further, the “N (ligand binding stoichiometry to the MarR monomer)” value in data set [1] (setting [3]) was 0.67 ± 0.03.
